According to ChEMBL document CHEMBL2440076, “New triarylpyrazoles as broad-spectrum anticancer agents: design, synthesis, and biological evaluation” (Eur J Med Chem, 2013):
pIC50: −log10 of the molar value.

Legend:
MDA-MB-435 = assay: Growth inhibition of human MDA-MB-435 cells after 48 hrs by sulforhodamine B assay; type: functional, cell-based; settings: MDA-MB-435, 48 h
IGROV-1 = assay: Growth inhibition of human IGROV1 cells after 48 hrs by sulforhodamine B assay; type: functional; settings: IGROV-1, 48 h
BT-549 = assay: Growth inhibition of human BT549 cells after 48 hrs by sulforhodamine B assay; type: functional; settings: BT-549, 48 h
M14 = assay: Growth inhibition of human M14 cells assessed as cell growth at 10 uM after 48 hrs by sulforhodamine B assay; type: functional; settings: M14, 48 h, read-out: Activity
DU-145 = assay: Growth inhibition of human DU145 cells assessed as cell growth at 10 uM after 48 hrs by sulforhodamine B assay; type: functional; settings: DU-145, 48 h, read-out: Activity
U-251 = assay: Growth inhibition of human U251 cells assessed as cell growth at 10 uM after 48 hrs by sulforhodamine B assay; type: functional; settings: U-251, 48 h, read-out: Activity
NCI-H23 = assay: Growth inhibition of human NCI-H23 cells assessed as cell growth at 10 uM after 48 hrs by sulforhodamine B assay; type: functional; settings: NCI-H23, 48 h, read-out: Activity
UACC-257 = assay: Growth inhibition of human UACC257 cells after 48 hrs by sulforhodamine B assay; type: functional; settings: UACC-257, 48 h
KM12 = assay: Growth inhibition of human KM12 cells after 48 hrs by sulforhodamine B assay; type: functional, cell-based; settings: KM12, 48 h
K562 = assay: Growth inhibition of human K562 cells assessed as cell growth at 10 uM after 48 hrs by sulforhodamine B assay; type: functional; settings: K562, 48 h, read-out: Activity
NCI-H322M = assay: Growth inhibition of human NCI-H322M cells after 48 hrs by sulforhodamine B assay; type: functional
OVCAR-5 [1] = assay: Growth inhibition of human OVCAR5 cells after 48 hrs by sulforhodamine B assay; type: functional; settings: OVCAR-5, 48 h
SF-295 = assay: Growth inhibition of human SF295 cells after 48 hrs by sulforhodamine B assay; type: functional, cell-based; settings: SF-295, 48 h
MDA-MB-231 [2] = assay: Growth inhibition of human MDA-MB-231 cells after 48 hrs by sulforhodamine B assay; type: functional; settings: MDA-MB-231, 48 h
SK-MEL-2 = assay: Growth inhibition of human SK-MEL-2 cells after 48 hrs by sulforhodamine B assay; type: functional; settings: SK-MEL-2, 48 h
T47D = assay: Growth inhibition of human T47D cells assessed as cell growth at 10 uM after 48 hrs by sulforhodamine B assay; type: functional; settings: read-out: Activity
HL-60(TB) = assay: Growth inhibition of human HL-60(TB) cells after 48 hrs by sulforhodamine B assay; type: functional; settings: HL-60, 48 h
HOP-62 = assay: Growth inhibition of human HOP62 cells assessed as cell growth at 10 uM after 48 hrs by sulforhodamine B assay; type: functional; settings: HOP-62, 48 h, read-out: Activity
SW-620 = assay: Growth inhibition of human SW620 cells assessed as cell growth at 10 uM after 48 hrs by sulforhodamine B assay; type: functional; settings: SW-620, 48 h, read-out: Activity
CCRF-CEM = assay: Growth inhibition of human CCRF-CEM cells after 48 hrs by sulforhodamine B assay; type: functional
[3] = Growth inhibition of human NCI-ADR-RES cells after 48 hrs by sulforhodamine B assay; type: functional
SF-268 = assay: Growth inhibition of human SF268 cells assessed as cell growth at 10 uM after 48 hrs by sulforhodamine B assay; type: functional; settings: SF-268, 48 h, read-out: Activity
PC-3 = assay: Growth inhibition of human PC3 cells after 48 hrs by sulforhodamine B assay; type: functional, cell-based; settings: PC-3, 48 h
RPMI-8226 = assay: Growth inhibition of human RPMI8226 cells assessed as cell growth at 10 uM after 48 hrs by sulforhodamine B assay; type: functional; settings: RPMI-8226, 48 h, read-out: Activity
COLO 205 = assay: Growth inhibition of human COLO205 cells assessed as cell growth at 10 uM after 48 hrs by sulforhodamine B assay; type: functional; settings: COLO 205, 48 h, read-out: Activity
MDA-MB-231 [4] = assay: Growth inhibition of human MDA-MB-231 cells assessed as cell growth at 10 uM after 48 hrs by sulforhodamine B assay; type: functional; settings: MDA-MB-231, 48 h, read-out: Activity
SK-MEL-28 = assay: Growth inhibition of human SK-MEL-28 cells assessed as cell growth at 10 uM after 48 hrs by sulforhodamine B assay; type: functional; settings: SK-MEL-28, 48 h, read-out: Activity
OVCAR-5 [5] = assay: Growth inhibition of human OVCAR5 cells assessed as cell growth at 10 uM after 48 hrs by sulforhodamine B assay; type: functional; settings: OVCAR-5, 48 h, read-out: Activity
MOLT-4 = assay: Growth inhibition of human MOLT4 cells after 48 hrs by sulforhodamine B assay; type: functional; settings: MOLT-4, 48 h
RXF 393 = assay: Growth inhibition of human RXF393 cells after 48 hrs by sulforhodamine B assay; type: functional; settings: RXF 393, 48 h
[6] = Growth inhibition of human Hs 578T cells after 48 hrs by sulforhodamine B assay; type: functional
NCI-H460 = assay: Growth inhibition of human NCI-H460 cells after 48 hrs by sulforhodamine B assay; type: functional; settings: NCI-H460, 48 h
MCF7 = assay: Growth inhibition of human MCF7 cells after 48 hrs by sulforhodamine B assay; type: functional; settings: MCF7, 48 h
[7] = read-out: LC50 (the source's name)

For `COc1cc(-c2nn(-c3cccc(NC(=O)c4ccccc4)c3)cc2-c2ccncc2)ccc1Cl`, which GI50 (MDA-MB-435) is on record?
The GI50 was 189 nM.

What about the pIC50 (MDA-MB-435) of the same compound?
Its pIC50 is 6.72.

And the TGI (MDA-MB-435)?
Its TGI is 551 nM.

And the CC50 (MDA-MB-435; [7])?
Its CC50 is 12300 nM.

And the GI50 (IGROV-1)?
Its GI50 is 534 nM.

And the LC50 (concentration killing 50% of cells) (IGROV-1)?
Its LC50 (concentration killing 50% of cells) is greater than 100000 nM.

What about the TGI (IGROV-1) of the same compound?
Its TGI is greater than 100000 nM.

And the GI50 (BT-549)?
Its GI50 is 1330 nM.

What about the LC50 (50% lethal concentration) (BT-549) of the same compound?
The LC50 (50% lethal concentration) was greater than 100000 nM.

And the TGI (BT-549)?
Its TGI is greater than 100000 nM.

What about the growth at 10 µM (M14) of the same compound?
The growth at 10 µM was -3.82%.

What about the growth at 10 µM (DU-145) of the same compound?
The growth at 10 µM was 11.6%.

What about the growth at 10 µM (U-251) of the same compound?
The growth at 10 µM was 13.5%.

And the growth at 10 µM (NCI-H23)?
Its growth at 10 µM is 33.8%.

What about the GI50 (UACC-257) of the same compound?
The GI50 was 859 nM.

What about the TGI (UACC-257) of the same compound?
The TGI was greater than 100000 nM.

What about the CC50 (UACC-257; [7]) of the same compound?
Its CC50 is greater than 100000 nM.

And the GI50 (KM12)?
The GI50 was 556 nM.

And the pIC50 (KM12)?
The pIC50 was 6.25.

What about the TGI (KM12) of the same compound?
The TGI was greater than 100000 nM.

What about the CC50 (KM12; [7]) of the same compound?
Its CC50 is greater than 100000 nM.

What about the growth at 10 µM (K562) of the same compound?
Its growth at 10 µM is 2.59%.

And the GI50 (NCI-H322M)?
Its GI50 is 4590 nM.

And the TGI (NCI-H322M)?
The TGI was greater than 100000 nM.

And the CC50 (NCI-H322M; [7])?
The CC50 was greater than 100000 nM.

And the GI50 (OVCAR-5 [1])?
The GI50 was 15000 nM.

And the LC50 (concentration killing 50% of cells) (OVCAR-5 [1])?
Its LC50 (concentration killing 50% of cells) is greater than 100000 nM.

And the TGI (OVCAR-5 [1])?
Its TGI is greater than 100000 nM.

And the GI50 (SF-295)?
Its GI50 is 337 nM.

And the pIC50 (SF-295)?
Its pIC50 is 6.47.

What about the TGI (SF-295) of the same compound?
Its TGI is 2260 nM.

And the CC50 (SF-295; [7])?
Its CC50 is greater than 100000 nM.

And the GI50 (MDA-MB-231 [2])?
Its GI50 is 1170 nM.

What about the LC50 (MDA-MB-231 [2]) of the same compound?
Its LC50 is greater than 100000 nM.

And the TGI (MDA-MB-231 [2])?
Its TGI is 13700 nM.

And the GI50 (SK-MEL-2)?
The GI50 was 389 nM.

And the LC50 (50% lethal concentration) (SK-MEL-2)?
The LC50 (50% lethal concentration) was greater than 100000 nM.

And the TGI (SK-MEL-2)?
The TGI was 4970 nM.

And the growth at 10 µM (T47D)?
The growth at 10 µM was 21.8%.

And the GI50 (HL-60(TB))?
The GI50 was 479 nM.

What about the TGI (HL-60(TB)) of the same compound?
The TGI was greater than 100000 nM.

And the CC50 (HL-60(TB); [7])?
The CC50 was greater than 100000 nM.

And the growth at 10 µM (HOP-62)?
The growth at 10 µM was 27.1%.

What about the growth at 10 µM (SW-620) of the same compound?
Its growth at 10 µM is 18.4%.

And the GI50 (CCRF-CEM)?
The GI50 was 492 nM.

And the LC50 (CCRF-CEM)?
The LC50 was greater than 100000 nM.

What about the TGI (CCRF-CEM) of the same compound?
The TGI was greater than 100000 nM.

What about the GI50 [3] of the same compound?
Its GI50 is 448 nM.

What about the TGI [3] of the same compound?
Its TGI is greater than 100000 nM.

What about the CC50 [3, 7] of the same compound?
Its CC50 is greater than 100000 nM.

And the growth at 10 µM (SF-268)?
Its growth at 10 µM is 18.7%.

What about the GI50 (PC-3) of the same compound?
Its GI50 is 426 nM.

What about the pIC50 (PC-3) of the same compound?
Its pIC50 is 6.37.

And the TGI (PC-3)?
Its TGI is greater than 100000 nM.

What about the CC50 (PC-3; [7]) of the same compound?
Its CC50 is greater than 100000 nM.

What about the growth at 10 µM (RPMI-8226) of the same compound?
The growth at 10 µM was 9.39%.

And the growth at 10 µM (COLO 205)?
The growth at 10 µM was 2.21%.

What about the growth at 10 µM (MDA-MB-231 [4]) of the same compound?
The growth at 10 µM was 5.8%.

And the growth at 10 µM (SK-MEL-28)?
The growth at 10 µM was 34.4%.

And the growth at 10 µM (OVCAR-5 [5])?
Its growth at 10 µM is 66.4%.

And the GI50 (MOLT-4)?
Its GI50 is 701 nM.

What about the TGI (MOLT-4) of the same compound?
Its TGI is greater than 100000 nM.

What about the CC50 (MOLT-4; [7]) of the same compound?
The CC50 was greater than 100000 nM.

What about the GI50 (RXF 393) of the same compound?
Its GI50 is 646 nM.

And the LC50 (concentration killing 50% of cells) (RXF 393)?
Its LC50 (concentration killing 50% of cells) is greater than 100000 nM.

What about the TGI (RXF 393) of the same compound?
Its TGI is 6340 nM.

What about the GI50 [6] of the same compound?
Its GI50 is 1110 nM.

And the TGI [6]?
The TGI was greater than 100000 nM.

And the CC50 [6, 7]?
The CC50 was greater than 100000 nM.

What about the GI50 (NCI-H460) of the same compound?
Its GI50 is 394 nM.

And the LC50 (NCI-H460)?
The LC50 was greater than 100000 nM.

What about the TGI (NCI-H460) of the same compound?
Its TGI is greater than 100000 nM.

And the GI50 (MCF7)?
Its GI50 is 335 nM.

And the LC50 (MCF7)?
The LC50 was greater than 100000 nM.

And the TGI (MCF7)?
Its TGI is greater than 100000 nM.
